Measured values reported in the supplement of paper PMC10307832.

Columns and labels:
Experiment in all cases: relative viability (nuclei count vs DMSO), 5 days (fraction); higher = more cells survive
Salubrinal + Bortezomib = compound: O=C(/C=C/c1ccccc1)NC(NC(=S)Nc1cccc2cccnc12)C(Cl)(Cl)Cl [Salubrinal] + CC(C)C[C@H](NC(=O)[C@H](Cc1ccccc1)NC(=O)c1cnccn1)B(O)O [Bortezomib] (partner 0.002 µM)
In short: (§1)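 Relative viability divides the nuclei count in treated wells by that in vehicle wells. Lung cancer cell lines were seeded in 1536-well plates, dosed by pin tool the next day, and fixed and stained after 5 days in one step with final 0.05% Triton X-100, 1% formaldehyde and 1 ug/ml Hoechst. Dosing was a single drug or a fixed anchor-drug dose plus five library-drug doses (not always all listed) in √10 steps, and values are medians of duplicate plates imaged at 4×.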

Salubrinal + Trametinib = compound: O=C(/C=C/c1ccccc1)NC(NC(=S)Nc1cccc2cccnc12)C(Cl)(Cl)Cl [Salubrinal] + CC(=O)Nc1cccc(-n2c(=O)n(C3CC3)c(=O)c3c(Nc4ccc(I)cc4F)n(C)c(=O)c(C)c32)c1 [Trametinib] (partner 0.02 µM)
In short: as §1

[1] = compound: Cc1ccc2nc(NCCN)c3ncc(C)n3c2c1 + CS(=O)(=O)N1CCN(Cc2cc3nc(-c4cccc5[nH]ncc45)nc(N4CCOCC4)c3s2)CC1 [Pictilisib] (partner 1 µM)
In short: as §1

[2] = compound: Cc1ccc2nc(NCCN)c3ncc(C)n3c2c1 + C[C@@H](Oc1cc(-c2cnn(C3CCNCC3)c2)cnc1N)c1c(Cl)ccc(F)c1Cl [Crizotinib] (partner 1 µM)
In short: as §1

UMC-11
relative viability (Salubrinal + Bortezomib; first compound 0.08 µM): 0.747 | relative viability (Salubrinal + Bortezomib; first compound 0.253 µM): 0.462 | relative viability (Salubrinal + Bortezomib; first compound 0.8 µM): 1.29 | relative viability (Salubrinal + Bortezomib; first compound 2.53 µM): 0.904 | relative viability (Salubrinal + Bortezomib; first compound 8 µM): 0.575 | relative viability (Salubrinal + Trametinib; first compound 0.08 µM): 0.468 | relative viability (Salubrinal + Trametinib; first compound 0.253 µM): 0.749 | relative viability (Salubrinal + Trametinib; first compound 0.8 µM): 0.741 | relative viability (Salubrinal + Trametinib; first compound 2.53 µM): 0.775 | relative viability (Salubrinal + Trametinib; first compound 8 µM): 0.826 | relative viability ([1]; first compound 0.04 µM): 0.857 | relative viability ([1]; first compound 0.1265 µM): 0.692 | relative viability ([1]; first compound 0.4 µM): 0.808 | relative viability ([1]; first compound 1.265 µM): 0.813 | relative viability ([1]; first compound 4 µM): 0.708 | relative viability ([2]; first compound 0.04 µM): 0.7 | relative viability ([2]; first compound 0.1265 µM): 0.57 | relative viability ([2]; first compound 0.4 µM): 0.6 | relative viability ([2]; first compound 1.265 µM): 0.646 | relative viability ([2]; first compound 4 µM): 0.481
